ChEMBL document CHEMBL1130163, “Synthesis and inhibition studies of sulfur-substituted squalene oxide analogues as mechanism-based inhibitors of 2,3-oxidosqualene-lanosterol cyclase” (J Med Chem, 1997)

Target: T1, Lanosterol synthase (Rattus norvegicus, UniProt P48450)
T1 sequence (P48450 whole entry): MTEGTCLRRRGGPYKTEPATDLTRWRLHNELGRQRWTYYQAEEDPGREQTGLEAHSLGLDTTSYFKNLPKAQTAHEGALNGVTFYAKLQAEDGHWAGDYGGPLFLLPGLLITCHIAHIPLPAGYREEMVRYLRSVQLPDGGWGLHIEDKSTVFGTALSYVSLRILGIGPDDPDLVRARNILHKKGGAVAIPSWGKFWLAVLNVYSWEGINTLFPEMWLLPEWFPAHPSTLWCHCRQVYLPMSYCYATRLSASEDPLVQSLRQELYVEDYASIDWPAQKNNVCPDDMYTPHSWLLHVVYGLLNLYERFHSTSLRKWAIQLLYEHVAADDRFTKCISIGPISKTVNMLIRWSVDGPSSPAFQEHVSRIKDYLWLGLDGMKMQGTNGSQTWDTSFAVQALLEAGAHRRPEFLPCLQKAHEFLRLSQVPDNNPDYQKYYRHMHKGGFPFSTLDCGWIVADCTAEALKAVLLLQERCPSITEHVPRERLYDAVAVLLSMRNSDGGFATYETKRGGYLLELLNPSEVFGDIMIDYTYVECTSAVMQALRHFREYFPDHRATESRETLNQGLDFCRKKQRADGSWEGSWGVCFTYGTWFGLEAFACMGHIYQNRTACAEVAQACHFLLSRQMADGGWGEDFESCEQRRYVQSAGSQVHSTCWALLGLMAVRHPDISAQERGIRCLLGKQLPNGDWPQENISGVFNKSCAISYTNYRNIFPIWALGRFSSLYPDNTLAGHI
Assay: Inhibition against rat liver Oxidosqualene-lanosterol cyclase

- IC50: 110 nM
SMILES: CC(C)=CCCC1(C)OC1CC/C(C)=C/CC/C=C(\C)CCCC(C)CCC1OC1C (stereo unspecified)
